From PubChem BioAssay (NCI)
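Cultured in 96-well plates, cells were exposed to test compound for 48 hours across five concentrations. TGI is the concentration that stops growth completely.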

What was measured:
Test in all cases: NCI anticancer screen, dose series, 48 h
[1] = system: HCT-15 colon
[2] = system: A549 NSCLC
[3] = system: A498 renal
[4] = system: OVCAR-5 ovarian
[5] = system: HOP-62 NSCLC
[6] = system: ACHN renal
[7] = system: NCI/ADR-RES ovarian
[8] = system: SF-295 CNS
[9] = system: MALME-3M melanoma
[10] = system: SR leukemia
[11] = system: SN12C renal
[12] = system: K-562 leukemia
[13] = system: SF-539 CNS
[14] = system: SK-MEL-2 melanoma
[15] = system: RPMI-8226 leukemia
[16] = system: HCC-2998 colon
[17] = system: SK-OV-3 ovarian
[18] = system: NCI-H522 lung
[19] = system: NCI-H23 lung
[20] = system: 786-0 renal
[21] = system: M14 melanoma
[22] = system: UO-31 renal
[23] = system: SW-620 colon
[24] = system: SF-268 CNS
[25] = system: MOLT-4 leukemia
[26] = system: SNB-19 CNS
[27] = system: TK-10 renal
[28] = system: SK-MEL-5 melanoma
[29] = system: CAKI-1 renal
[30] = system: UACC-62 melanoma
[31] = system: OVCAR-8 ovarian
[32] = system: SK-MEL-28 melanoma
[33] = system: MDA-MB-231 breast
[34] = system: RXF 393 renal
[35] = system: HT29 colon
[36] = system: COLO 205 colon
[37] = system: OVCAR-3 ovarian
[38] = system: NCI-H460 lung
[39] = system: T-47D breast
[40] = system: KM12 colon
[41] = system: HOP-92 NSCLC
[42] = system: PC-3 prostate
[43] = system: OVCAR-4 ovarian
[44] = system: MDA-MB-435
[45] = system: DU-145 prostate
[46] = system: MCF7 breast
[47] = system: U251 CNS
[48] = system: HCT-116 colon
[49] = system: EKVX NSCLC
[50] = system: NCI-H226 lung
[51] = system: UACC-257 melanoma
[52] = system: HL-60(TB) leukemia
[53] = system: HS 578T breast
[54] = system: SNB-75 CNS
[55] = system: CCRF-CEM leukemia

Measured: TGI

CN=C1Nc2ccccc2C(=S)N2CSC[C@@H]12
not listed: [49] | [50] | [51] | [52] | [53] | [54] | [55]
> 100 µM: all other assays above

Cc1ncc([N+](=O)[O-])n1CC(O)Cn1cnc([N+](=O)[O-])n1 (configuration not stated)
not listed: [7] | [17] | [21] | [22] | [26] | [27] | [29] | [30] | [33] | [34] | [36] | [39] | [41] | [43] | [44] | [45]
> 100 µM: all other assays above
